In general, EC50 refers to the concentration needed to bring the measured effect to its halfway point. One may read the Ki as a dissociation constant, usually derived from enzyme kinetics or from competition with a known ligand.

The test system of test [1] is LRRK2 G2019S-expressing flies. Kind of test: LRRK2 G2019S Drosophila model of PD (climbing assay, DA neuron count). The class given is in vivo. The text has this:
(§1) Parkin-null (pk-/-) flies were first used to evaluate compound 5. […] (Fig 8B), the cluster used widely in the parkin-null flies. Compound 5 was subsequently examined for its ability to ameliorate LRRK2 G2019S-induced PD phenotypes. […] Taken together, these findings indicate that compound 5 acts as a suppressor of DA neuron dysfunction in two Drosophila genetic PD models—one with parkin-null which represents recessive PD, and one with transgene LRRK2 G2019S-mutant, which represents dominant PD.
(§2) Fly lines for 24B-Gal4 (muscle specific), ddc-Gal4 (dopaminergic neuron-specific), elav-Gal4 (pan-neuronal), UAS-mito-GFP, and UAS-dAMPK-KA were purchased from Bloomington Drosophila Stock Center. The parkin-null mutant flies were kind gifts from Chung J. and Cho K. S. (Korea Advanced Institute of Science and Technology, Daejeon, Korea). […] After a 2-hour recovery period from CO2 exposure, flies were gently tapped to the bottom of the column, and the number of flies that reached the top of column at 1 min was counted. […] DA neurons were quantified according to previously published method. The size of mito-GFP puncta was measured using the ImageJ program and expressed as mean ± SD (n ≥ 10 DA neurons per experimental group). Statistical significance for all the quantitative data obtained were analyzed using one-way ANOVA with Tukey’s test HSD post hoc test (*p < 0.05, **p < 0.01).

For a further test, the system named is parkin-null flies. The experiment in a line: parkin-null Drosophila model of PD (climbing assay, DA neuron count). Type of test: in vivo. As to conditions: 50 μM.
From the text: as §1, §2

Test [2] has as its target human dopamine D2 receptor (Homo sapiens, UniProt P14416). The experiment in a line: D2R-proteopolymersomes-based fluorescence competition assay with BODIPY-NAPS. The class given is binding. Details: made in house; host or cells: in vitro (cell-free) synthesis, inserted into polymersomes. As to conditions: + D2-ACM (D2R-proteopolymersomes); read-out: EC50 (D2 receptor, displacement of BODIPY-NAPS).
Protocol: For the replacement assay, ABA-polymersomes were covalently attached to an amino-functionalized glass slide, which was then treated with isopropanol, ultrapure water and a N2-stream. […] Program ImageJ was used for determination of fluorescence intensities.

In test [3] the target is T1, human A1 receptors expressed in CHO cells (Homo sapiens, UniProt P30542).
T1 sequence (P30542 1-326): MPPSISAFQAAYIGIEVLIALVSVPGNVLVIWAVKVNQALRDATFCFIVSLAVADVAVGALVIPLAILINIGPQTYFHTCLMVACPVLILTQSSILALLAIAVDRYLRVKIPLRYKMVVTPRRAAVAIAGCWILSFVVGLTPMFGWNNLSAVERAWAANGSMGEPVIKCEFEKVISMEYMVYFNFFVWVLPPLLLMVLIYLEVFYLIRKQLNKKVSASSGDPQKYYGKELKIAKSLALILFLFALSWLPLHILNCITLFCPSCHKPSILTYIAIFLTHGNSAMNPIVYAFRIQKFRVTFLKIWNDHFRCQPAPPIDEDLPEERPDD
Kind of test: competition binding at human A1 adenosine receptors ([3H]CCPA displacement). The conditions noted are these: displacement of [3H]CCPA, 95% confidence limits, n = 3–6, read-out: Ki hA1. On the procedure:
(§3) A two-step procedure was adopted to prepare membrane for radioligand binding from cells stably transfected with human adenosine receptor subtypes (hA1, hA2A and hA3 expressed on CHO cells). Firstly, cell fragments and nuclei were removed by using low-speed centrifugation (1,000 g for 10 min). After that, crude membrane fraction from supernatant was then sedimented at 100,000 g for 30 min. The membrane pellet was subsequently re-suspended in the specific binding buffer, frozen in liquid nitrogen and stored at -80°C. For measurement of adenylyl cyclase activity in the hA2B receptors, one-step centrifugation procedure was used; the homogenate was sedimented for 30 min at 54,000 g. The so-obtained crude membrane pellet was re-suspended in 50 mM Tris/HCl, pH 7.4 and used for the adenylyl cyclase assay immediately.
(§4) Non-specific binding was determined using theophylline 1 mM. […] Non-specific binding was determined using N^6-R-phenylisopropyl adenosine (R-PIA) 100 μM. ^41 The binding of [^3H]HEMADO to CHO cells transfected with hA3 adenosine receptors was carried out as described earlier. […] Non-specific binding was determined using R-PIA 100 μM.
(§5) The assay mixture was then filtered through the built-in filter at the bottom of the 96-well microplate filtration system (Millipore Multiscreen MAFC) and washed three times with 200 μL of cold buffer. After addition of 20 μL of scintillator to the dried filter plates, the filter bound radioactivity was counted on a Wallac Micro-Beta counter. All Ki values were calculated by non-linear curve fitting with the program SCTFIT [45].
Background: In a radioligand displacement assay an active substance lowers the binding of a labelled ligand.

The target of test [4] is human A2A receptors expressed in CHO cells (Homo sapiens, UniProt P29274). The experiment in a line: competition binding at human A2A adenosine receptors ([3H]NECA displacement). As to conditions: for Ki: displacement of [3H]NECA, CHO cells, 95% confidence limits, n = 3–6, read-out: Ki hA2A; for hA1/hA2A / hA3/hA2A: selectivity ratio of Ki values. On the procedure: as §3, §4, §5

For test [5], the target named is T2, human A2B receptors expressed in CHO cells (Homo sapiens, UniProt P29275).
T2 sequence (P29275 1-332): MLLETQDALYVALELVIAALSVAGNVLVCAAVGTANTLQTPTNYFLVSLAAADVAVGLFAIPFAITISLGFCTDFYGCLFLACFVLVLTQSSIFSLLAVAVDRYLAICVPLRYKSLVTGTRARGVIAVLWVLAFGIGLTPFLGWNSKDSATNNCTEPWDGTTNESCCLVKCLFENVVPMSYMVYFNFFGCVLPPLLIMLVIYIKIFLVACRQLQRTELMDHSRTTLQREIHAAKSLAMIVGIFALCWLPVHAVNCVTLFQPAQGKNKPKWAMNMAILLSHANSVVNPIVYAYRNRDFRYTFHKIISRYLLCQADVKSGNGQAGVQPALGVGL
Kind of test: inhibition of NECA-stimulated adenylyl cyclase activity at hA2B.
Protocol: The membranes were incubated with about 150,000 cpm of [α-^32P]adenosine triphosphate ([α-^32P]ATP) and test compounds in different concentrations for 20 min. A non-linear regression analysis was applied to calculate the IC50 of the adenylyl cyclase activity assay. From the IC50 values, Ki values were then calculated using the Cheng and Prusoff equation [46].

“And” between values parts separate entries of the source, which are not always exact repeats. Equal entries are not always repeated. Some results are limits rather than exact numbers.

Chain of human A2A receptors expressed in CHO cells (P29274 whole entry): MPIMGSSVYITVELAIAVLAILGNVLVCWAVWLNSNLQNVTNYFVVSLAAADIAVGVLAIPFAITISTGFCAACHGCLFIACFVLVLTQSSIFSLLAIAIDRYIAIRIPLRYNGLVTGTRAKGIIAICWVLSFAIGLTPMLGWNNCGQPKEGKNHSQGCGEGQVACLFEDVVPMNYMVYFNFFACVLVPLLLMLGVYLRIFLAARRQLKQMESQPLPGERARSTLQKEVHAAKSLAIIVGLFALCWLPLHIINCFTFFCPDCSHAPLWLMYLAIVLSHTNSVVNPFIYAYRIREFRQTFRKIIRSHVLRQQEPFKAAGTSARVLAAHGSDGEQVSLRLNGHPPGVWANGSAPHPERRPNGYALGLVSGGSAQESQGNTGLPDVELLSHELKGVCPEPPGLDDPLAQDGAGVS
Chain of human dopamine D2 receptor (P14416 whole entry): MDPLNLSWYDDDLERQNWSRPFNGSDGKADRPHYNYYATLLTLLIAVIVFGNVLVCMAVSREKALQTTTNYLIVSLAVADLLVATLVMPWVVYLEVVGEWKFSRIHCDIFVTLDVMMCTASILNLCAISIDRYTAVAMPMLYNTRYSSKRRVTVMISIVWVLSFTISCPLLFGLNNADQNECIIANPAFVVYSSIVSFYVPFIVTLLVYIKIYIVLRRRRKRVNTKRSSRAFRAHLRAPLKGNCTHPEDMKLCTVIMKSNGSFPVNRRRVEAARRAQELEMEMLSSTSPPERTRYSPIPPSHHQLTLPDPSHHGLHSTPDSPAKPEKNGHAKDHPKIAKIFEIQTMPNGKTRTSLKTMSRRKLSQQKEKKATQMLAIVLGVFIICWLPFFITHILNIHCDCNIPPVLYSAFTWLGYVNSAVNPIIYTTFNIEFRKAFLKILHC

As to `Cc1cc(C)nc(N2CCN(C(=O)c3c[nH]c4ccccc34)CC2)n1` [Compound 5, 3‐[4‐(4,6‐Dimethylpyrimidin‐2‐yl)piperazine‐1‐carbonyl]‐1H‐indole], the climbing score result in test [1] (50 μM and 100 μM) was “improvement in climbing (in a concentration-dependent manner)”; in the test with parkin-null flies (compared with untreated mutant flies), “improvement in climbing scores”. In addition, in test [1] (LRRK2 G2019S-expressing flies), the DA neuronal count result is “mitigation of DA neuron degeneration”. For the same compound, the “DA neuronal count (PPL1 cluster)” value in the test with parkin-null flies is “reduction of DA neuron loss in the PPL1 cluster”. In addition, in test [2], the EC50 was 22.5 to 40.2 µM and 22.5 µM. Further, the inhibition constant (Ki) in test [3] is over 100 µM; in test [4] it was 11.2 µM and 8.7 to 11.2 µM. Also, the hA1/hA2A in test [4] is recorded as over 9. Besides, the hA3/hA2A in test [4] is over 9.
Turning to `Cc1cc(C)nc(N2CCN(C(=O)Cc3c(C)[nH]c4ccccc34)CC2)n1` [Compound 6, 1‐[4‐(4,6‐Dimethylpyrimidin‐2‐yl)piperazin‐1‐yl]‐2‐(2‐methyl‐1H‐indol‐3‐yl)ethan‐1‐one], in test [2], the EC50 is 22.5 to 40.2 µM and 40.2 µM. In addition, the Ki in test [3] was over 100 µM; in test [4], 8.71 µM; in test [5], over 20 µM. The hA1/hA2A in test [4] is listed as over 11. Further, the hA3/hA2A in test [4] is given as over 11.

Source of the values: article PMC5755735, “Discovery of indolylpiperazinylpyrimidines with dual-target profiles at adenosine A2A and dopamine D2 receptors for Parkinson's disease treatment” (PLoS ONE, 2018).
